According to PubChem BioAssay AID1918939 (Molecular Pharmacology Branch, DTP, NCI, 2023):

Tested on: 653999-131-R-J2-PDC complex spheroid viability
Assay: Anticancer human tumor 653999-131-R-J2-PDC patient-derived lung adenocarcinoma cell line growth inhibition
Details: for IC50: curve of first compound; for viability, T/C: stronger effect = lower value
Method in brief: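 Multicellular complex spheroids of tumor cells with human endothelial cells (HUVEC) and mesenchymal stem cells; the LSD1 inhibitor iadademstat was combined with standard-of-care or investigational agents. Top concentration at or near clinical Cmax, half-log dilutions; final DMSO ≤0.25%.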

[1] = second compound 0.1 µM, first compound 0.00316 µM
[2] = second compound 0.1 µM, first compound 0.01 µM
[3] = second compound 0.1 µM, first compound 0.0316 µM
[4] = second compound 0.1 µM, first compound 0.1 µM
[5] = second compound 0.1 µM, first compound 0.316 µM
[6] = second compound 0.1 µM, first compound 1 µM
[7] = second compound 0.316 µM, first compound 0.00316 µM
[8] = second compound 0.316 µM, first compound 0.01 µM
[9] = second compound 0.316 µM, first compound 0.0316 µM
[10] = second compound 0.316 µM, first compound 0.1 µM
[11] = second compound 0.316 µM, first compound 0.316 µM
[12] = second compound 0.316 µM, first compound 1 µM
[13] = second compound 1 µM, first compound 0.00316 µM
[14] = second compound 1 µM, first compound 0.01 µM
[15] = second compound 1 µM, first compound 0.0316 µM
[16] = second compound 1 µM, first compound 0.1 µM
[17] = second compound 1 µM, first compound 0.316 µM
[18] = second compound 1 µM, first compound 1 µM
[19] = second compound 3.16 µM, first compound 0.00316 µM
[20] = second compound 3.16 µM, first compound 0.01 µM
[21] = second compound 3.16 µM, first compound 0.0316 µM
[22] = second compound 3.16 µM, first compound 0.1 µM
[23] = second compound 3.16 µM, first compound 0.316 µM
[24] = second compound 3.16 µM, first compound 1 µM
[25] = second compound 10 µM, first compound 0.00316 µM
[26] = second compound 10 µM, first compound 0.01 µM
[27] = second compound 10 µM, first compound 0.0316 µM
[28] = second compound 10 µM, first compound 0.1 µM
[29] = second compound 10 µM, first compound 0.316 µM
[30] = second compound 10 µM, first compound 1 µM
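Also: spheroids exposed to agents for seven days before readout.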

O=C(C=Cn1cnc(-c2cc(C(F)(F)F)cc(C(F)(F)F)c2)n1)NNc1cnccn1 + NC1CC1c1ccc(-c2cccc(O)c2)cc1
IC50 (second compound 0.1 µM): 14.8 nM
IC50 (second compound 0.316 µM): 6.9 nM
IC50 (second compound 1 µM): < 3.16 nM
IC50 (second compound 3.16 µM): < 3.16 nM
IC50 (second compound 10 µM): < 3.16 nM
viability, T/C [1]: 53.4%
viability, T/C [2]: 53.9%
viability, T/C [3]: 47.5%
viability, T/C [4]: 38.8%
viability, T/C [5]: 39%
viability, T/C [6]: 29.2%
viability, T/C [7]: 54%
viability, T/C [8]: 48.3%
viability, T/C [9]: 44.3%
viability, T/C [10]: 34.9%
viability, T/C [11]: 37.2%
viability, T/C [12]: 31.8%
viability, T/C [13]: 47.8%
viability, T/C [14]: 51.5%
viability, T/C [15]: 43%
viability, T/C [16]: 34.2%
viability, T/C [17]: 27.2%
viability, T/C [18]: 27.4%
viability, T/C [19]: 46.4%
viability, T/C [20]: 45.8%
viability, T/C [21]: 38.8%
viability, T/C [22]: 41.1%
viability, T/C [23]: 30%
viability, T/C [24]: 24.8%
viability, T/C [25]: 49.5%
viability, T/C [26]: 48.8%
viability, T/C [27]: 39.5%
viability, T/C [28]: 39.6%
viability, T/C [29]: 33.7%
viability, T/C [30]: 27%

COc1cc(C2c3cc4c(cc3C(OC3OC5COC(C)OC5C(O)C3O)C3COC(=O)C23)OCO4)cc(OC)c1O (stereo not given) + NC1CCC(NC2CC2c2ccccc2)CC1
IC50 (second compound 0.1 µM): 88.4 nM
IC50 (second compound 0.316 µM): 123 nM
IC50 (second compound 1 µM): 64.5 nM
IC50 (second compound 3.16 µM): 168 nM
IC50 (second compound 10 µM): 241 nM
viability, T/C (second compound 0.1 µM, first compound 0.00949 µM): 70.8%
viability, T/C (second compound 0.1 µM, first compound 0.03 µM): 61.6%
viability, T/C (second compound 0.1 µM, first compound 0.0949 µM): 48.6%
viability, T/C (second compound 0.1 µM, first compound 0.3 µM): 38.2%
viability, T/C (second compound 0.1 µM, first compound 0.949 µM): 37.6%
viability, T/C (second compound 0.1 µM, first compound 3 µM): 28.3%
viability, T/C (second compound 0.316 µM, first compound 0.00949 µM): 68.6%
viability, T/C (second compound 0.316 µM, first compound 0.03 µM): 63.7%
viability, T/C (second compound 0.316 µM, first compound 0.0949 µM): 54.5%
viability, T/C (second compound 0.316 µM, first compound 0.3 µM): 36.6%
viability, T/C (second compound 0.316 µM, first compound 0.949 µM): 31.3%
viability, T/C (second compound 0.316 µM, first compound 3 µM): 29.7%
viability, T/C (second compound 1 µM, first compound 0.00949 µM): 74.5%
viability, T/C (second compound 1 µM, first compound 0.03 µM): 52.6%
viability, T/C (second compound 1 µM, first compound 0.0949 µM): 50.2%
viability, T/C (second compound 1 µM, first compound 0.3 µM): 35.7%
viability, T/C (second compound 1 µM, first compound 0.949 µM): 37.5%
viability, T/C (second compound 1 µM, first compound 3 µM): 26.8%
viability, T/C (second compound 3.16 µM, first compound 0.00949 µM): 71.5%
viability, T/C (second compound 3.16 µM, first compound 0.03 µM): 66.6%
viability, T/C (second compound 3.16 µM, first compound 0.0949 µM): 55.9%
viability, T/C (second compound 3.16 µM, first compound 0.3 µM): 44.9%
viability, T/C (second compound 3.16 µM, first compound 0.949 µM): 31.3%
viability, T/C (second compound 3.16 µM, first compound 3 µM): 30.3%
viability, T/C (second compound 10 µM, first compound 0.00949 µM): 68.3%
viability, T/C (second compound 10 µM, first compound 0.03 µM): 60.6%
viability, T/C (second compound 10 µM, first compound 0.0949 µM): 57.7%
viability, T/C (second compound 10 µM, first compound 0.3 µM): 49.9%
viability, T/C (second compound 10 µM, first compound 0.949 µM): 37.3%
viability, T/C (second compound 10 µM, first compound 3 µM): 31.3%

Nc1ncn(C2CC(O)C(CO)O2)c(=O)n1 (stereo not given) + NC1CCC(NC2CC2c2ccccc2)CC1
IC50 (second compound 0.1 µM): > 1000 nM
IC50 (second compound 0.316 µM): > 1000 nM
IC50 (second compound 1 µM): > 1000 nM
IC50 (second compound 3.16 µM): > 1000 nM
IC50 (second compound 10 µM): > 1000 nM
viability, T/C [1]: 102%
viability, T/C [2]: 89.1%
viability, T/C [3]: 91.4%
viability, T/C [4]: 69%
viability, T/C [5]: 68.9%
viability, T/C [6]: 70.7%
viability, T/C [7]: 93.3%
viability, T/C [8]: 105%
viability, T/C [9]: 87.5%
viability, T/C [10]: 82.7%
viability, T/C [11]: 75.8%
viability, T/C [12]: 64.4%
viability, T/C [13]: 92.1%
viability, T/C [14]: 86.5%
viability, T/C [15]: 86.9%
viability, T/C [16]: 75.1%
viability, T/C [17]: 81.8%
viability, T/C [18]: 62%
viability, T/C [19]: 87.1%
viability, T/C [20]: 87.6%
viability, T/C [21]: 94.2%
viability, T/C [22]: 81.4%
viability, T/C [23]: 77.4%
viability, T/C [24]: 78%
viability, T/C [25]: 93.5%
viability, T/C [26]: 99.3%
viability, T/C [27]: 85.8%
viability, T/C [28]: 86.6%
viability, T/C [29]: 73.3%
viability, T/C [30]: 82.5%
